# Laboratory results as given in patent publication US12291494B2, “Methods of treating fibrosis” (Nogra Pharma Limited, priority 2012, dated 2025).
# “Also recorded” adds a separate entry of the source.
# Legend:
# [1] = system: liver biochemical parameters in the serum of mice (AST, ALT, Gamma GT, Alkaline phosphatase); experiment: Liver blood enzyme analysis in serum; type: in vivo; details: 4 days after the last administration of CCl4
# Experimental: The effect of oral administration of compound 34 (GED) and the specific CB2 agonist (JWH-133) was evaluated on different liver biochemical parameters in the serum of mice: hepatic enzymes ([…]), Gamma GT and the Alkaline phosphatase.
# C57bl6 mice = experiment: DSS intestinal fibrosis study (Ex. 5/6): colon ratio weight/size; type: in vivo
# Experimental: This example describes an experiment to evaluate the effect of compound 34 on intestinal fibrosis. Chronic colitis was induced in C57bl6 mice by 3 cycles of 2.5% DSS (40,000-50,000 MW, TdB consultancy AB, Sweden) dissolved in sterile drinking water for 5 days followed by 7 days of regular drinking water.
# Compound 34 was used at its optimal dosage (30 mM) and administered by oral gavage daily after the second cycle of DSS and until euthanasia. Mice receiving DSS were checked twice a week for development of colitis by monitoring body weight. Euthanasia of mice was performed one week after the third cycle of DSS (see FIG. 5). Evaluation of the size and weight of the colon was evaluated post mortem.
# Intestinal fibrosis is characterized by a shortening and thickening of the colon and adherences. The measure of the ratio weight/size of the colon is an indicator of the level of inflammation and fibrosis. […] Compound 34 causes a 34% reduction in the profibrotic effect of DSS leading to a significant decrease ratio weight/size of the colon of 38.13±7.82 vs 44.98±6.31 (p<0.05) compared to DSS mice receiving the vehicle (FIG. 6A). Accordingly, it reduces the morphological signs of fibrosis such as the shortening and the thickening of the colon and it decreases the collagen deposit in the colon (FIG. 6B).
# α-SMA = experiment: DSS intestinal fibrosis study: Western blot of colon, α-SMA; type: in vivo, mice; details: whole colon, OD normalized with GAPDH, expressed as percentage of control groups; DSS 125.4 ± 19.45
# Experimental: (§1) For the Western blot analysis, 0.5 cm of frozen colonic samples were homogenized in RIPA Buffer containing 50 mM Tris HCl pH 7.6, 150 mM NaCl, 1.5 mM MgCl2, 5 mM EDTA, 1% Triton-X and 10% Glycerol, supplemented with 100 mM Sodium Fluoride (NaF), 2 mM Sodium Orthovanadate (Na3VO4), 10 mM Sodium Pyrophosphate (NaPPi), 1 mM phenylmethanesulphone (PMSF) and a classical protease-inhibitor cocktail containing 10 μg/mL Leupeptin and Aprotinin.
# For each sample, 30 μg of protein was separated by PAGE and electroblotted. Nitrocellulose membranes (100% pure) were incubated (according with a specific protocol for each antibody) with primary antibodies directed against CTGF, Collagen-I and GAPDH (purchased from Abcam, Cambridge, UK; 1:1000 for 2 h at RT), diluted in 5% non-fat milk in 0.1% TBS-t. […] Optical density of target bands was determined using a computer-assisted densitometer and the ImageJ public domain software (W. S., Rasband, ImageJ, U. S. National Institutes of Health, Bethesda, MD; http://rsb.info.nih.gov/ij/, 1997-2011). Tissue levels were expressed as units of Optical Density (OD) per quantity of total proteins, normalized with internal control GAPDH and the results were expressed as percentage of control groups.
# Collagen I-III = experiment: DSS chronic colitis (Ex. 7): Western blot, Collagen I-III; type: in vivo, mice; details: percentage of the mean of control group, normalized with GAPDH; DSS 284.4%±63.8%
# Experimental: as §1, with “0.5” for “For the Western blot analysis, 0.5”, “were cut and mechanically” for “were”, “mMTrisHCl” for “mM Tris HCl”, “mMNaCl,” for “mM NaCl,”, “mMphenylmethanesulphone” for “mM phenylmethanesulphone”
# 30 μg of protein for each sample were separated by PAGE and electroblotted. 100% pure Nitrocellulose membranes were incubated (according with a specific protocol for each antibody) with primary antibodies directed against TGF-β1, CTGF, α-SMA, Collagen-I and GAPDH (purchased from Abcam, Cambridge, UK; 1:1000 for 2 h at RT), and IL-13 (purchased from Antibodies online; 1:1000 for 2 h at RT) diluted in 5% non fat-milk in 0.1% TBS-t. […] Optical density of target bands was determined using a computer-assisted densitometer and the ImageJ public domain software (W. S., Rasband, ImageJ, U. S. National Institutes of Health, Bethesda, MD; http://rsb.info.nih.gov/ij/, 1997-2011). Tissue levels were expressed as units of Optical Density (OD) per quantity of total proteins, normalizing with internal control GAPDH and the results were expressed as percentage of control groups.
compound,measurement,setting,value
"COC(Cc1ccc(N)cc1)C(=O)O (racemic) [Compound 34, (±)-2-methoxy-3-(4′-aminophenyl) propionic acid]","enhancement of blood liver enzymes (AST, ALT, Alk P) / liver toxicity",[1],not associated with any enhancement of blood liver enzymes; also recorded: without liver toxicity
same,ratio weight/size of the colon,"C57bl6 mice; compound 34 30 mM 200 uL oral gavage daily day 13-36, DSS vehicle 44.98±6.31, control 20.11±3.91",38.13±7.82
same,reduction in the profibrotic effect of DSS (colon ratio weight/size),C57bl6 mice; compound 34 30 mM oral gavage,34%
same,α-SMA (Western blot),α-SMA,97.88 ± 15.66
same,Collagen I-III expression level (Western blot),Collagen I-III,90.75%±19.9%
